Activity calls are given as the source filed them. The rule behind the calls is not given here.
Experiments:
Curvularia lunata [1] = test: Antifungal activity against Curvularia lunata MTCC 581 at 80 uM/ml after 48 hrs by paper disc diffusion method; format: functional; conditions: MTCC 581, 48 h, read-out: IZ
Trichoderma viride [2] = test: Antifungal activity against Trichoderma viride MTCC 1107 at 80 uM/ml after 48 hrs by paper disc diffusion method; format: functional; conditions: MTCC 1107, 48 h, read-out: IZ
Escherichia coli [3] = test: Antibacterial activity against Escherichia coli ATCC 35218 at 20 uM/ml after 24 hrs by kirby-bauer method; format: functional; conditions: ATCC 35218, 24 h, read-out: IZ
[4] = tested on: Burkholderia pseudomallei; test: Antibacterial activity against Burkholderia pseudomallei NTCC 10274 at 20 uM/ml after 24 hrs by kirby-bauer method; format: functional; conditions: NTCC 10274, 24 h, read-out: IZ
Curvularia lunata [5] = test: Antifungal activity against Curvularia lunata MTCC 581 at 20 uM/ml after 48 hrs by paper disc diffusion method; format: functional; conditions: MTCC 581, 48 h, read-out: IZ
Aspergillus flavus [6] = test: Antifungal activity against Aspergillus flavus MTCC 1021 at 160 uM/ml after 48 hrs by paper disc diffusion method; format: functional
Salmonella typhimurium [7] = test: Antibacterial activity against Salmonella typhimurium ATCC 23564 at 80 uM/ml after 24 hrs by kirby-bauer method; format: functional, Salmonella enterica subsp. enterica serovar Typhimurium; conditions: Salmonella enterica, ATCC 23564, 24 h; read-out: IZ
Aspergillus flavus [8] = test: Antifungal activity against Aspergillus flavus MTCC 1021 at 80 uM/ml after 48 hrs by paper disc diffusion method; format: functional; conditions: MTCC 1021, 48 h, read-out: IZ
Pseudomonas aeruginosa [9] = test: Antibacterial activity against Pseudomonas aeruginosa ATCC 15499 at 160 uM/ml after 24 hrs by kirby-bauer method; format: functional; conditions: ATCC 15499, 24 h, read-out: IZ
Staphylococcus aureus [10] = test: Antibacterial activity against Staphylococcus aureus ATCC 11632 at 20 uM/ml after 24 hrs by kirby-bauer method; format: functional; conditions: ATCC 11632, 24 h, read-out: IZ
Escherichia coli [11] = test: Antibacterial activity against Escherichia coli ATCC 35218 at 160 uM/ml after 24 hrs by kirby-bauer method; format: functional; conditions: ATCC 35218, 24 h, read-out: IZ
[12] = tested on: Burkholderia pseudomallei; test: Antibacterial activity against Burkholderia pseudomallei NTCC 10274 at 160 uM/ml after 24 hrs by kirby-bauer method; format: functional; conditions: NTCC 10274, 24 h, read-out: IZ
Escherichia coli [13] = test: Antibacterial activity against Escherichia coli ATCC 35218 at 40 uM/ml after 24 hrs by kirby-bauer method; format: functional; conditions: ATCC 35218, 24 h, read-out: IZ
QG-56 = test: Cytotoxicity against human QG56 cells after 48 hrs by MTT assay; format: functional, cell-based
Aspergillus niger [14] = test: Antifungal activity against Aspergillus niger MTCC 1108 at 20 uM/ml after 48 hrs by paper disc diffusion method; format: functional
Pseudomonas aeruginosa [15] = test: Antibacterial activity against Pseudomonas aeruginosa ATCC 15499 at 20 uM/ml after 24 hrs by kirby-bauer method; format: functional; conditions: ATCC 15499, 24 h, read-out: IZ
Curvularia lunata [16] = test: Antifungal activity against Curvularia lunata MTCC 581 at 160 uM/ml after 48 hrs by paper disc diffusion method; format: functional; conditions: MTCC 581, 48 h, read-out: IZ
Aspergillus flavus [17] = test: Antifungal activity against Aspergillus flavus MTCC 1021 at 40 uM/ml after 48 hrs by paper disc diffusion method; format: functional; conditions: MTCC 1021, 48 h, read-out: IZ
Staphylococcus aureus [18] = test: Antibacterial activity against Staphylococcus aureus ATCC 11632 at 80 uM/ml after 24 hrs by kirby-bauer method; format: functional; conditions: ATCC 11632, 24 h, read-out: IZ
Pseudomonas aeruginosa [19] = test: Antibacterial activity against Pseudomonas aeruginosa ATCC 15499 at 80 uM/ml after 24 hrs by kirby-bauer method; format: functional; conditions: ATCC 15499, 24 h, read-out: IZ
[20] = tested on: Burkholderia pseudomallei; test: Antibacterial activity against Burkholderia pseudomallei NTCC 10274 at 40 uM/ml after 24 hrs by kirby-bauer method; format: functional; conditions: NTCC 10274, 24 h, read-out: IZ
Trichoderma viride [21] = test: Antifungal activity against Trichoderma viride MTCC 1107 at 40 uM/ml after 48 hrs by paper disc diffusion method; format: functional; conditions: MTCC 1107, 48 h, read-out: IZ
Salmonella typhimurium [22] = test: Antibacterial activity against Salmonella typhimurium ATCC 23564 at 160 uM/ml after 24 hrs by kirby-bauer method; format: functional, Salmonella enterica subsp. enterica serovar Typhimurium; conditions: Salmonella enterica, ATCC 23564, 24 h; read-out: IZ
Salmonella typhimurium [23] = test: Antibacterial activity against Salmonella typhimurium ATCC 23564 at 40 uM/ml after 24 hrs by kirby-bauer method; format: functional, Salmonella enterica subsp. enterica serovar Typhimurium; conditions: Salmonella enterica, ATCC 23564, 24 h; read-out: IZ
Pseudomonas aeruginosa [24] = test: Antibacterial activity against Pseudomonas aeruginosa ATCC 15499 at 40 uM/ml after 24 hrs by kirby-bauer method; format: functional; conditions: ATCC 15499, 24 h, read-out: IZ
Escherichia coli [25] = test: Antibacterial activity against Escherichia coli ATCC 35218 at 80 uM/ml after 24 hrs by kirby-bauer method; format: functional; conditions: ATCC 35218, 24 h, read-out: IZ
Staphylococcus aureus [26] = test: Antibacterial activity against Staphylococcus aureus ATCC 11632 at 40 uM/ml after 24 hrs by kirby-bauer method; format: functional; conditions: ATCC 11632, 24 h, read-out: IZ
Trichoderma viride [27] = test: Antifungal activity against Trichoderma viride MTCC 1107 at 160 uM/ml after 48 hrs by paper disc diffusion method; format: functional; conditions: MTCC 1107, 48 h, read-out: IZ
Aspergillus niger [28] = test: Antifungal activity against Aspergillus niger MTCC 1108 at 160 uM/ml after 48 hrs by paper disc diffusion method; format: functional
Trichoderma viride [29] = test: Antifungal activity against Trichoderma viride MTCC 1107 at 20 uM/ml after 48 hrs by paper disc diffusion method; format: functional; conditions: MTCC 1107, 48 h, read-out: IZ
Staphylococcus aureus [30] = test: Antibacterial activity against Staphylococcus aureus ATCC 11632 at 160 uM/ml after 24 hrs by kirby-bauer method; format: functional; conditions: ATCC 11632, 24 h, read-out: IZ
Aspergillus niger [31] = test: Antifungal activity against Aspergillus niger MTCC 1108 at 40 uM/ml after 48 hrs by paper disc diffusion method; format: functional
Salmonella typhimurium [32] = test: Antibacterial activity against Salmonella typhimurium ATCC 23564 at 20 uM/ml after 24 hrs by kirby-bauer method; format: functional, Salmonella enterica subsp. enterica serovar Typhimurium; conditions: Salmonella enterica, ATCC 23564, 24 h; read-out: IZ
Curvularia lunata [33] = test: Antifungal activity against Curvularia lunata MTCC 581 at 40 uM/ml after 48 hrs by paper disc diffusion method; format: functional; conditions: MTCC 581, 48 h, read-out: IZ
Aspergillus niger [34] = test: Antifungal activity against Aspergillus niger MTCC 1108 at 80 uM/ml after 48 hrs by paper disc diffusion method; format: functional; conditions: MTCC 1108, 48 h, read-out: IZ
Aspergillus flavus [35] = test: Antifungal activity against Aspergillus flavus MTCC 1021 at 20 uM/ml after 48 hrs by paper disc diffusion method; format: functional
[36] = tested on: Burkholderia pseudomallei; test: Antibacterial activity against Burkholderia pseudomallei NTCC 10274 at 80 uM/ml after 24 hrs by kirby-bauer method; format: functional; conditions: NTCC 10274, 24 h, read-out: IZ
Aspergillus niger [37] = test: Antifungal activity against Aspergillus niger MTCC 1108 after 48 hrs by poison food method; format: functional

COc1cc(/C=C/C(=O)C2=C(/C=C/c3ccc(O)c(OC)c3)NC(=O)NC2c2ccc(O)cc2)ccc1O (stereo not given)
zone of inhibition at 80 µM (Curvularia lunata [1]): 20 mm | IC50 (HepG2): 25 uM/ml | zone of inhibition at 80 µM (Trichoderma viride [2]): 14 mm | zone of inhibition at 20 µM (Escherichia coli [3]): 12 mm | zone of inhibition at 20 µM [4]: 9 mm | zone of inhibition at 20 µM (Curvularia lunata [5]): 18 mm | zone of inhibition at 160 µM (Aspergillus flavus [6]; MTCC 1021, 48 h, read-out: IZ): 13 mm | zone of inhibition at 80 µM (Salmonella typhimurium [7]): 16 mm | zone of inhibition at 80 µM (Aspergillus flavus [8]): 11 mm | zone of inhibition at 160 µM (Pseudomonas aeruginosa [9]): 22 mm | zone of inhibition at 20 µM (Staphylococcus aureus [10]): 16 mm | zone of inhibition at 160 µM (Escherichia coli [11]): 22 mm | zone of inhibition at 160 µM [12]: 19 mm | zone of inhibition at 40 µM (Escherichia coli [13]): 14 mm | IC50 (QG-56): 50 uM/ml | inhibition zone (IZ) (Aspergillus niger [14]): inactive | zone of inhibition at 20 µM (Pseudomonas aeruginosa [15]): 17 mm | zone of inhibition at 160 µM (Curvularia lunata [16]): 21 mm | zone of inhibition at 40 µM (Aspergillus flavus [17]): 9 mm | zone of inhibition at 80 µM (Staphylococcus aureus [18]): 22 mm | zone of inhibition at 80 µM (Pseudomonas aeruginosa [19]): 19 mm | zone of inhibition at 40 µM [20]: 11 mm | zone of inhibition (Trichoderma viride [21]): 11 mm | zone of inhibition at 160 µM (Salmonella typhimurium [22]): 18 mm | zone of inhibition at 40 µM (Salmonella typhimurium [23]): 13 mm | zone of inhibition at 40 µM (Pseudomonas aeruginosa [24]): 19 mm | zone of inhibition at 80 µM (Escherichia coli [25]): 18 mm | IC50 (HCT-116): 12.5 uM/ml | zone of inhibition at 40 µM (Staphylococcus aureus [26]): 19 mm | zone of inhibition at 160 µM (Trichoderma viride [27]): 16 mm | zone of inhibition at 160 µM (Aspergillus niger [28]; MTCC 1108, 48 h, read-out: IZ): 11 mm | zone of inhibition at 20 µM (Trichoderma viride [29]): 9 mm | zone of inhibition at 160 µM (Staphylococcus aureus [30]): 24 mm | inhibition zone (IZ) (Aspergillus niger [31]): inactive | zone of inhibition at 20 µM (Salmonella typhimurium [32]): 9 mm | zone of inhibition at 40 µM (Curvularia lunata [33]): 20 mm | zone of inhibition at 80 µM (Aspergillus niger [34]): 9 mm | inhibition zone (IZ) (Aspergillus flavus [35]): inactive | zone of inhibition at 80 µM [36]: 15 mm

OC(Cn1cncn1)(Cn1cncn1)c1ccc(F)cc1F [FLUCONAZOLE]
zone of inhibition at 80 µM (Curvularia lunata [1]): 28 mm | zone of inhibition at 80 µM (Trichoderma viride [2]): 29 mm | zone of inhibition at 20 µM (Curvularia lunata [5]): 24 mm | inhibition zone (IZ) (Aspergillus flavus [6]): inactive | zone of inhibition at 160 µM (Curvularia lunata [16]): 31 mm | zone of inhibition (Trichoderma viride [21]): 24 mm | zone of inhibition at 160 µM (Trichoderma viride [27]): 32 mm | inhibition zone (IZ) (Aspergillus niger [28]): inactive | zone of inhibition at 20 µM (Trichoderma viride [29]): 21 mm | zone of inhibition at 40 µM (Curvularia lunata [33]): 27 mm | MIC (Aspergillus niger [37]): inactive

From ChEMBL document CHEMBL2016493, “Design, synthesis, synergistic antimicrobial activity and cytotoxicity of 4-aryl substituted 3,4-dihydropyrimidinones of curcumin” (Bioorg Med Chem Lett, 2012)
